Reference: US8952024B2, “Herbicidal pyrimidone derivatives” (E I du Pont de Nemours and Company, priority 2009, dated 2015)

Tests used:
Experiment in all cases: Test B pre-/postemergence plant response
Assay type in all cases: in vivo
[1] = system: Surinam grass (Brachiaria decumbens)
Summary of the method: (§1)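 Pre-em in loam/sand; post-em at 1–4 leaf (2–18 cm) in peat mix. Solvent + surfactant formulation. Greenhouse 13–15 d; visual % control vs untreated, 0–100.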

[2] = system: blackgrass (Alopecurus myosuroides)
Summary of the method: as §1

corn (Zea mays) = system: corn (Zea mays)
Summary of the method: as §1

[3] = system: downy bromegrass (Bromus tectorum)
Summary of the method: as §1

[4] = system: goosegrass (Eleusine indica)
Summary of the method: as §1

[5] = system: green foxtail (Setaria viridis)
Summary of the method: as §1

[6] = system: johnsongrass (Sorghum halepense)
Summary of the method: as §1

kochia (Kochia scoparia) = system: kochia (Kochia scoparia)
Summary of the method: as §1

[7] = system: lambsquarters (Chenopodium album)
Summary of the method: as §1

[8] = system: large crabgrass (Digitaria sanguinalis)
Summary of the method: as §1

[9] = system: morningglory (Ipomoea coccinea)
Summary of the method: as §1

[10] = system: pigweed (Amaranthus retroflexus)
Summary of the method: as §1

soybean (Glycine max) = system: soybean (Glycine max)
Summary of the method: as §1

[11] = system: velvetleaf (Abutilon theophrasti)
Summary of the method: as §1

wild oat (Avena fatua) = system: wild oat (Avena fatua)
Summary of the method: as §1

[12] = system: woolly cupgrass (Eriochloa villosa)
Summary of the method: as §1

[13] = system: yellow nutsedge (Cyperus esculentus)
Summary of the method: as §1

[14] = 31 g ai/ha, postemergence, scale 0 to 100, 0 is no effect, 100 is complete control
[15] = Postemergence, 62 g ai/ha, scale 0 (no effect) to 100 (complete control), 13 to 15 days
[16] = Postemergence, 125 g ai/ha, visual rating after 13 to 15 days, scale 0 (no effect) to 100 (complete control)
[17] = Postemergence, 250 g ai/ha, scale 0 to 100 (0 no effect, 100 complete control)
[18] = Preemergence, 31 g ai/ha, scale 0 to 100 (0 no effect, 100 complete control)
[19] = Preemergence, 62 g ai/ha, scale 0 to 100, 0 no effect, 100 complete control
[20] = Preemergence, 125 g ai/ha, scale 0 to 100, 0 no effect, 100 complete control
[21] = 250 g ai/ha, Preemergence, 0 to 100 scale
[22] = Postemergence, 31 g ai/ha, 0 to 100 scale (0 no effect, 100 complete control)
[23] = Postemergence, 62 g ai/ha, scale 0 to 100 (0 no effect, 100 complete control)
[24] = Postemergence, 125 g ai/ha, scale 0 to 100 (0 no effect, 100 complete control)
[25] = Postemergence, 250 g ai/ha, scale 0 to 100 (0 no effect, 100 complete control), 13 to 15 days

## CCCCc1ncc(C(=O)C2=C(O)CCCC2=O)c(=O)n1-c1ccccc1C [Compound 62]
[1]; [14]
  Plant response rating, Surinam Grass: 20
[1]; [15]
  Plant response rating, Surinam Grass: 45
[1]; [16]
  Plant response rating, Surinam Grass: 65
[1]; [17]
  Plant response rating, Surinam Grass: 70
[1]; [18]
  Plant response rating, Surinam Grass: 5
[1]; [19]
  Plant response rating, Surinam Grass: 20
[1]; [20]
  Plant response rating, Surinam Grass: 25
[2]; [14]
  Plant response rating, Blackgrass: 15
[2]; [21]
  Plant response rating, Blackgrass: 0
[2]; [15]
  Plant response rating, Blackgrass: 30
[2]; [16]
  Plant response rating, Blackgrass: 30
[2]; [17]
  Plant response rating, Blackgrass: 50
[2]; [18]
  Plant response rating, Blackgrass: 0
[2]; [19]
  Plant response rating, Blackgrass: 0
[2]; [20]
  Plant response rating, Blackgrass: 0
Corn (Zea mays); [14]
  Plant response rating, Corn: 70
Corn (Zea mays); [15]
  Plant response rating, Corn: 70
Corn (Zea mays); [16]
  Plant response rating, Corn: 75
Corn (Zea mays); [17]
  Plant response rating, Corn: 80
Corn (Zea mays); [18]
  Plant response rating, Corn: 0
Corn (Zea mays); [20]
  Plant response rating, Corn: 0
[3]; [14]
  Plant response rating, Bromegrass, Downy: 30
[3]; [21]
  Plant response rating, Bromegrass, Downy: 0
[3]; [15]
  Plant response rating, Bromegrass, Downy: 45
[3]; [16]
  Plant response rating, Bromegrass, Downy: 50
[3]; [17]
  Plant response rating, Bromegrass, Downy: 50
[3]; [18]
  Plant response rating, Bromegrass, Downy: 0
[3]; [19]
  Plant response rating, Bromegrass, Downy: 0
[3]; [20]
  Plant response rating, Bromegrass, Downy: 0
[4]; [14]
  Plant response rating, Goosegrass: 65
[4]; [21]
  Plant response rating, Goosegrass: 98
[4]; [15]
  Plant response rating, Goosegrass: 65
[4]; [16]
  Plant response rating, Goosegrass: 65
[4]; [17]
  Plant response rating, Goosegrass: 75
[4]; [18]
  Plant response rating, Goosegrass: 15
[4]; [19]
  Plant response rating, Goosegrass: 95
[4]; [20]
  Plant response rating, Goosegrass: 98
[5]; [14]
  Plant response rating, Foxtail, Green: 40
[5]; [21]
  Plant response rating, Foxtail, Green: 10
[5]; [15]
  Plant response rating, Foxtail, Green: 70
[5]; [16]
  Plant response rating, Foxtail, Green: 80
[5]; [17]
  Plant response rating, Foxtail, Green: 85
[5]; [18]
  Plant response rating, Foxtail, Green: 0
[5]; [19]
  Plant response rating, Foxtail, Green: 0
[5]; [20]
  Plant response rating, Foxtail, Green: 10
[6]; [14]
  Plant response rating, Johnsongrass: 0
[6]; [15]
  Plant response rating, Johnsongrass: 0
[6]; [16]
  Plant response rating, Johnsongrass: 0
[6]; [17]
  Plant response rating, Johnsongrass: 10
[6]; [18]
  Plant response rating, Johnsongrass: 0
[6]; [19]
  Plant response rating, Johnsongrass: 0
[6]; [20]
  Plant response rating, Johnsongrass: 0
Kochia (Kochia scoparia); [14]
  Plant response rating, Kochia: 10
Kochia (Kochia scoparia); [21]
  Plant response rating, Kochia: 100
Kochia (Kochia scoparia); [15]
  Plant response rating, Kochia: 25
Kochia (Kochia scoparia); [16]
  Plant response rating, Kochia: 60
Kochia (Kochia scoparia); [17]
  Plant response rating, Kochia: 80
Kochia (Kochia scoparia); [18]
  Plant response rating, Kochia: 98
Kochia (Kochia scoparia); [19]
  Plant response rating, Kochia: 100
Kochia (Kochia scoparia); [20]
  Plant response rating, Kochia: 100
[7]; [14]
  Plant response rating, Lambsquarters: 85
[7]; [21]
  Plant response rating, Lambsquarters: 100
[7]; [15]
  Plant response rating, Lambsquarters: 95
[7]; [16]
  Plant response rating, Lambsquarters: 98
[7]; [17]
  Plant response rating, Lambsquarters: 100
[7]; [18]
  Plant response rating, Lambsquarters: 98
[7]; [19]
  Plant response rating, Lambsquarters: 98
[7]; [20]
  Plant response rating, Lambsquarters: 100
[8]; [14]
  Plant response rating, Crabgrass, Large: 55
[8]; [21]
  Plant response rating, Crabgrass, Large: 98
[8]; [15]
  Plant response rating, Crabgrass, Large: 75
[8]; [16]
  Plant response rating, Crabgrass, Large: 80
[8]; [17]
  Plant response rating, Crabgrass, Large: 85
[8]; [18]
  Plant response rating, Crabgrass, Large: 0
[8]; [19]
  Plant response rating, Crabgrass, Large: 50
[8]; [20]
  Plant response rating, Crabgrass, Large: 80
[9]; [15]
  Plant response rating, Morningglory: 15
[9]; [16]
  Plant response rating, Morningglory: 75
[9]; [17]
  Plant response rating, Morningglory: 75
[9]; [18]
  Plant response rating, Morningglory: 0
[9]; [19]
  Plant response rating, Morningglory: 0
[9]; [20]
  Plant response rating, Morningglory: 0
[10]; [14]
  Plant response rating, Pigweed: 98
[10]; [15]
  Plant response rating, Pigweed: 98
[10]; [16]
  Plant response rating, Pigweed: 100
[10]; [17]
  Plant response rating, Pigweed: 100
[10]; [18]
  Plant response rating, Pigweed: 45
[10]; [19]
  Plant response rating, Pigweed: 98
[10]; [20]
  Plant response rating, Pigweed: 100
Soybean (Glycine max); [14]
  Plant response rating, Soybean: 75
Soybean (Glycine max); [15]
  Plant response rating, Soybean: 80
Soybean (Glycine max); [16]
  Plant response rating, Soybean: 90
Soybean (Glycine max); [17]
  Plant response rating, Soybean: 95
Soybean (Glycine max); [18]
  Plant response rating, Soybean: 0
Soybean (Glycine max); [19]
  Plant response rating, Soybean: 80
Soybean (Glycine max); [20]
  Plant response rating, Soybean: 80
[11]; [14]
  Plant response rating, Velvetleaf: 85
[11]; [15]
  Plant response rating, Velvetleaf: 95
[11]; [16]
  Plant response rating, Velvetleaf: 95
[11]; [17]
  Plant response rating, Velvetleaf: 100
[11]; [18]
  Plant response rating, Velvetleaf: 75
[11]; [19]
  Plant response rating, Velvetleaf: 75
[11]; [20]
  Plant response rating, Velvetleaf: 95
Wild oat (Avena fatua); [14]
  Plant response rating, Oat, Wild: 5
Wild oat (Avena fatua); [15]
  Plant response rating, Oat, Wild: 10
Wild oat (Avena fatua); [16]
  Plant response rating, Oat, Wild: 25
Wild oat (Avena fatua); [17]
  Plant response rating, Oat, Wild: 40
Wild oat (Avena fatua); [18]
  Plant response rating, Oat, Wild: 0
Wild oat (Avena fatua); [19]
  Plant response rating, Oat, Wild: 0
Wild oat (Avena fatua); [20]
  Plant response rating, Oat, Wild: 0
[12]; [14]
  Plant response rating, Cupgrass, Woolly: 55
[12]; [21]
  Plant response rating, Cupgrass, Woolly: 10
[12]; [15]
  Plant response rating, Cupgrass, Woolly: 55
[12]; [16]
  Plant response rating, Cupgrass, Woolly: 60
[12]; [17]
  Plant response rating, Cupgrass, Woolly: 65
[12]; [18]
  Plant response rating, Cupgrass, Woolly: 0
[12]; [19]
  Plant response rating, Cupgrass, Woolly: 0
[12]; [20]
  Plant response rating, Cupgrass, Woolly: 5
[13]; [14]
  Plant response rating, Nutsedge, Yellow: 15
[13]; [15]
  Plant response rating, Nutsedge, Yellow: 25
[13]; [16]
  Plant response rating, Nutsedge, Yellow: 35
[13]; [17]
  Plant response rating, Nutsedge, Yellow: 55
[13]; [18]
  Plant response rating, Nutsedge, Yellow: 15
[13]; [19]
  Plant response rating, Nutsedge, Yellow: 25
[13]; [20]
  Plant response rating, Nutsedge, Yellow: 45

## CCn1c(-c2cccc(F)c2)ncc(C(=O)C2=C(O)C3CCC(C3)C2=O)c1=O (stereo not drawn) [Compound 236]
[1]; [22]
  Plant response rating, Surinam Grass: 60
[1]; [23]
  Plant response rating, Surinam Grass: 70
[2]; [22]
  Plant response rating, Blackgrass: 0
[2]; [24]
  Plant response rating, Blackgrass: 30
[2]; [25]
  Plant response rating, Blackgrass: 40
[2]; [23]
  Plant response rating, Blackgrass: 5
Corn (Zea mays); [22]
  Plant response rating, Corn: 15
Corn (Zea mays); [24]
  Plant response rating, Corn: 70
Corn (Zea mays); [23]
  Plant response rating, Corn: 60
[3]; [22]
  Plant response rating, Bromegrass, Downy: 0
[3]; [24]
  Plant response rating, Bromegrass, Downy: 10
[3]; [25]
  Plant response rating, Bromegrass, Downy: 25
[3]; [23]
  Plant response rating, Bromegrass, Downy: 5
[4]; [22]
  Plant response rating, Goosegrass: 80
[4]; [24]
  Plant response rating, Goosegrass: 95
[4]; [25]
  Plant response rating, Goosegrass: 100
[4]; [23]
  Plant response rating, Goosegrass: 90
[5]; [22]
  Plant response rating, Foxtail, Green: 80
[5]; [24]
  Plant response rating, Foxtail, Green: 98
[5]; [25]
  Plant response rating, Foxtail, Green: 98
[5]; [23]
  Plant response rating, Foxtail, Green: 95
[6]; [22]
  Plant response rating, Johnsongrass: 0
[6]; [24]
  Plant response rating, Johnsongrass: 20
[6]; [25]
  Plant response rating, Johnsongrass: 55
[6]; [23]
  Plant response rating, Johnsongrass: 15
Kochia (Kochia scoparia); [22]
  Plant response rating, Kochia: 80
Kochia (Kochia scoparia); [24]
  Plant response rating, Kochia: 100
Kochia (Kochia scoparia); [25]
  Plant response rating, Kochia: 100
Kochia (Kochia scoparia); [23]
  Plant response rating, Kochia: 98
[7]; [22]
  Plant response rating, Lambsquarters: 98
[7]; [24]
  Plant response rating, Lambsquarters: 100
[7]; [25]
  Plant response rating, Lambsquarters: 100
[7]; [23]
  Plant response rating, Lambsquarters: 100
[8]; [22]
  Plant response rating, Crabgrass, Large: 75
[8]; [24]
  Plant response rating, Crabgrass, Large: 98
[8]; [25]
  Plant response rating, Crabgrass, Large: 100
[8]; [23]
  Plant response rating, Crabgrass, Large: 90
[9]; [22]
  Plant response rating, Morningglory: 60
[9]; [24]
  Plant response rating, Morningglory: 95
[9]; [23]
  Plant response rating, Morningglory: 95
[10]; [22]
  Plant response rating, Pigweed: 85
[10]; [23]
  Plant response rating, Pigweed: 85
Soybean (Glycine max); [22]
  Plant response rating, Soybean: 90
Soybean (Glycine max); [25]
  Plant response rating, Soybean: 100
Soybean (Glycine max); [23]
  Plant response rating, Soybean: 98
[11]; [22]
  Plant response rating, Velvetleaf: 98
[11]; [25]
  Plant response rating, Velvetleaf: 100
[11]; [23]
  Plant response rating, Velvetleaf: 100
Wild oat (Avena fatua); [22]
  Plant response rating, Oat, Wild: 0
Wild oat (Avena fatua); [25]
  Plant response rating, Oat, Wild: 60
Wild oat (Avena fatua); [23]
  Plant response rating, Oat, Wild: 0
[12]; [22]
  Plant response rating, Cupgrass, Woolly: 70
[12]; [24]
  Plant response rating, Cupgrass, Woolly: 95
[12]; [23]
  Plant response rating, Cupgrass, Woolly: 85
[13]; [22]
  Plant response rating, Nutsedge, Yellow: 0
[13]; [24]
  Plant response rating, Nutsedge, Yellow: 15
[13]; [25]
  Plant response rating, Nutsedge, Yellow: 65
[13]; [23]
  Plant response rating, Nutsedge, Yellow: 15
